Paper PMC4442108, “Preclinical Validation of the Heparin-Reactive Peptide p5+14 as a Molecular Imaging Agent for Visceral Amyloidosis” (Molecules, 2015)
Where no end group is shown, it is not given here. [ ]: non-standard residue; d: D form. Tyr(3-I) = N[C@@H](Cc1ccc(O)c(I)c1)C(=O)O

Legend:
[1] = tested on: human AL and ATTR amyloid in tissue sections; assay: Peptide histochemistry and overlay micro-autoradiography on human tissue sections; assay type: binding; conditions: ~5 ng/mL, 1 h room temperature; FFPE human AL and ATTR sections
Description: For autoradiography, 6- μm-thick sections were cut from formalin-fixed, paraffin-embedded blocks, containing tissues from mice that had received ^125I-p5+14. Mice were euthanized at 1 h pi of radiotracer. The sections were placed on Plus microscope slides (ThermoFisher Scientific, Waltham, MA, USA), dipped in NTB-2 emulsion (Eastman Kodak, Rochester, NY, USA), stored in the dark and developed after a 4 day exposure. Each section was counterstained with hematoxylin and eosin. […] Blinded qualitative assessment of amyloid load in Congo red-stained sections of liver and spleen was performed by an experienced amyloid researcher who ranked each tissue on a 0 to 4+ scale. All tissue sections were examined using a Leica DM500 light microscope (Leica, Wetzlar, Germany) fitted with cross-polarizing filters (for Congo red). Digital microscopic images were acquired using a cooled CCD camera (SPOT; Diagnostic Instruments, Sterling Heights, MI, USA).
Peptide p5+14 (with a cysteine residue at the N-terminal) was prepared for tissue staining by either biotinylation, according to the manufacturer’s instructions, using a maleimide-biotin conjugation kit (Pierce, Grand Island, NY, USA), or for overlay-micoautoradiography by radioiodination with ^125I, as described above. […]

[2] = tested on: synthetic rVλ6Wil fibrils; assay type: binding, human; conditions: HSPG-free synthetic rVλ6Wil fibrils in suspension; PBST; 1 h RT; 125I-p5+14 ~5 ng
Description: (§1) Twenty-five microliters of 1 mg/mL AL extract, or synthetic rVλ6Wil variable domain fibrils were centrifuged in a 0.5 mL microfuge tube at 21,000× g for 5 min. The supernatant was discarded and pellet resuspended in 200 µL of PBS with 0.05% Tween-20 (PBST). Ten microliters of a 1:100 dilution of ^125I-p5+14 (~100,000 counts per minute (CPM); ~5 ng peptide) stock was added to the suspension. The mixture was rotated at RT for 1 h. Samples were then centrifuged twice at 15,000× g for 10 min. Supernatants and pellets were separated after each step and the radioactivity in each was measured using a Cobra II gamma counter (Perkin Elmer) with a 1 min acquisition. The percentage of ^125I-p5+14 bound to pellet was determined as follows: % Bound = Pellet CPM/(Pellet CPM + Supernatant CPM) × 100

[3] = tested on: healthy tissue homogenates; assay: Peptide ex vivo binding assay, non-specific binding; conditions: data not shown
[4] = tested on: human AL amyloid extracts; assay: Peptide ex vivo amyloid binding assay (pull-down), AL extracts; conditions: for % Bound (mean ± SD): 1 h incubation, PBST, RT, N = 2
Description: Human amyloid tissue extracts were prepared using the water flotation method as described by Pras et al. without modification. Purified amyloid material isolated in the water wash was collected and lyophilized before use.
as §1

[5] = molecular target: T1, human ATTR amyloid extract (Homo sapiens, UniProt P02766); assay: Peptide ex vivo amyloid binding assay (pull-down), ATTR extract; conditions: ATTR heart extract; ~5 ng 125I-p5+14, 25 µL of 1 mg/mL extract, PBST, 1 h RT, pellet vs supernatant CPM; N = 2
T1 construct: as well as one cardiac ATTR extract, were analyzed in this assay; from tissue; host or cells: human heart, water flotation extract

[6] = Biodistribution, SPECT/CT and micro-autoradiography of 125I-p5+14 in healthy wild type mice; assay type: in vivo, mouse (WT)
Description: For serial SPECT/CT imaging in cohorts (n = 3) of AA and healthy wild type (WT) mice, peptide p5+14 (100 µg) was radioiodinated with ~4 mCi of ^125I (Perkin Elmer, Waltham, MA, USA), using 20 µg chloramine T as the oxidizing agent. After quenching the reaction with 20 µg sodium metabisulfite, the radiolabeled peptide was diluted into 0.1% sterile gelatin in PBS and free radioiodide removed by size exclusion chromatography on a 5 mL PD10 (GE Healthcare) solid phase equilibrated with 0.1% gelatin/PBS. Fractions 0f 200 µL were collected and those containing the maximal radioactivity (indicative of ^125I-p5+14) were pooled, and the product’s radiochemical purity was established by SDS polyacrylamide gel electrophoresis (PAGE) analyzed by phosphor imaging (Cyclone Storage Phosphor System, Perkin Elmer, Shelton, CT, USA).
Imaging was performed as described. Briefly, WT or AA amyloid mice (n = 3) were injected with ~3 µg of ^125I-p5+14, 125 µCi (specific activity ~40 µCi/µg) in the lateral tail vein. After the appropriate uptake time (1, 4, 24, and 48 h), mice were euthanized by isoflurane inhalation overdose. SPECT images were acquired using an Inveon trimodality imaging platform (Siemens Preclinical Solution, Knoxville, TN, USA; [64]) running Inveon Acquisition Workplace software (ver. 2.0). Low energy (^125I; 25–45 keV) gamma photons were acquired at each of 60, 16-sec projections with 90 mm of bed travel. A 1 mm-diameter, 5-pinhole (Mouse Whole Body) collimator was used at 30 mm from the center of the field of view. […]
Samples of liver, spleen, pancreas, kidneys, small and large intestines, stomach and heart were harvested post mortem from every mouse undergoing imaging with ^125I-p5+14 [45]. A sample of each was placed into a tared, plastic vial, weighed and the ^125I radioactivity measured using an automated Wizard 3 gamma counter (1480 Wallac Gamma Counter, Perkin Elmer). The biodistribution data were expressed as % injected dose/g tissue (%ID/g). […]

% bound [2]: 95.7%
non-specific binding [3]: ~ 10%
median % bound amongst the test samples ([4]; across the human AL and ATTR amyloid extracts of Table 3): 92%
% Bound (mean ± SD) ([4]; κ1 AL08 liver extract): 96.35 ± 0.47%
% Bound (mean ± SD) ([4]; κ4 AL01 spleen extract): 97.00 ± 0.11%
% Bound (mean ± SD) ([4]; λ1 AL03 liver extract): 91.16 ± 0.87%
% Bound (mean ± SD) ([4]; λ1 AL07 liver extract): 51.81 ± 0.25%
% Bound (mean ± SD) ([4]; λ2 AL02 liver extract): 92.95 ± 0.31%
% Bound (mean ± SD) ([4]; λ2 AL02 spleen extract): 96.76 ± 3.65%
% Bound (mean ± SD) ([4]; λ2 AL06 liver extract): 89.66 ± 0.91%
% Bound (mean ± SD) ([4]; λ2 AL06 spleen extract): 97.11 ± 0.05%
% Bound (mean ± SD) ([4]; λ2 AL09 liver extract): 84.99 ± 0.14%
% Bound (mean ± SD) ([4]; λ3 AL04 liver extract): 88.44 ± 0.25%
% Bound (mean ± SD) ([4]; λ3 AL04 spleen extract): 92.29 ± 0.30%
% Bound (mean ± SD) ([4]; λ4 AL05 spleen extract): 95.44 ± 0.03%
% Bound (mean ± SD) [5]: 79.93 ± 1.23%
whole-body retention half-life ([6]; WT mice, iv ~3 µg 125I-p5+14, gamma counting up to 48 h pi, exponential fit, n = 3 per time point): ~ 1.5 h
tissue uptake at 2 h ([6]; mouse, in vivo, iv, 3 ug, healthy mice, 2 h pi, read-out: retention of radioactivity in any organ): < 0.6 %ID/g
Substance: GGG[Tyr(3-I)]SKAQKAQAKQAKQAQKAQKAQAKQAKQAQKAQKAQAKQAKQ [125I-p5+14]
overlay micro-autoradiography on human tissue sections [1]: co-localized with both AL and ATTR amyloid
micro-autoradiographic distribution of radiolabeled peptide in tissues ([6]; WT mice, 1 h pi, 6 µm tissue sections): not retained by any cells or macroscopic structures in healthy tissues
